Earlier results in patent US20170360732A1, “Methods and Drug Therapies for Patency of Occluded Blood Vessels Following Angioplasty” (NephroGenesis, LLC, priority 2014, published 2017).
Read-outs that look alike come from different tables or passages of the source. One block for each molecule: values may come before it.

Columns and labels:
[1] = not given; remark: listed apart in the source
[2] = test system: peripheral blood monocytes
[3] = test system: vascular smooth muscle cells; settings: 100 μM, cultured cells
lysyl oxidase = molecular target: T1, lysyl oxidase (Homo sapiens, UniProt P28300)
T1 sequence (P28300 169-417): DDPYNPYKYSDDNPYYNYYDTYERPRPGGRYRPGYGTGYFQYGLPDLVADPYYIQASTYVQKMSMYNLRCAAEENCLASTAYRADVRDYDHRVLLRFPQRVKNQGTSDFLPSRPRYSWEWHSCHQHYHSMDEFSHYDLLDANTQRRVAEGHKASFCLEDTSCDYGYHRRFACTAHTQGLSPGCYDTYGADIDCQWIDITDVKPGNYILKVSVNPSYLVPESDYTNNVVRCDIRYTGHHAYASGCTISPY

[4] = test system: Type I and Type IV collagen; settings: 100 μM
[5] = not given; remark: listed apart in the source
[6] = test system: vascular smooth muscle cells; settings: within 30 minutes
[7] = test system: arteries injured with balloon angioplasty; settings: oral, 6 months, rabbit, vs controls
[8] = test system: vessel restenosis following angioplasty; settings: 28 days, rabbit model of atherosclerosis

half-life (intravenous, patients with primary biliary cirrhosis): 1.43 h | peak plasma level ([1]; 750 mg oral, patients): 3.0 µg/mL | time to peak plasma level ([1]; 750 mg oral, patients): ≤ 3 h | plasma levels achieved with typical clinical uses ([1]; typical clinical uses of the drug): 3000 ng/mL
Compound: CC(C)(S)[C@@H](N)C(=O)O [D-penicillamine]
side effects (intravenous administration): no reported side effects

blocking of lysyl oxidase-stimulated monocyte migration [2]: blocked
Compound: NCCN [ethylenediamine]

inhibition of lysyl oxidase activity (lysyl oxidase; 0.2 μM): up to 79% | inhibition of lysyl oxidase activity (lysyl oxidase; 2.0 μM, 1 hour after drug administration): 90% | inhibition of lysyl oxidase activity (lysyl oxidase; 2.0 μM, within 5 minutes): completely inhibited | inhibition of lysyl oxidase activity (lysyl oxidase; 10 μM, within 15 minutes): 100% | maximum plasma concentration ([5]; intravenous infusion, 70 gms/m2 (approximately 140 gms), 1000 mg/min, oncology patients): 50 mM
Compound: O=C1O[C@H]([C@@H](O)CO)C(O)=C1O [ascorbic acid]
reduction of vascular smooth muscle cell proliferation and migration [3]: up to 16% | increase of expression of Type I and Type IV collagen [4]: 200%-250% | stimulatory effect upon Type III collagen (Type III collagen): no stimulatory effect | side effects ([5]; rapid intravenous infusion, 70-110 gm/M^2, oncology patients): no significant side effects

Compound: N#CCCN [β-aminopropionitrile]
blocking of lysyl oxidase-stimulated monocyte migration [2]: blocked | inhibition of migration of vascular smooth muscle cells [6]: 80% | reduction in cross-sectional diameter of the arteries injured with balloon angioplasty [7]: 60% | reduction of vessel restenosis following angioplasty [8]: 33%
